Type in all cases: in vivo
The test system of one assay is narkosierten Hund. In words: Blood pressure lowering in the anaesthetised dog (pentobarbital sodium), i.v. administration. Particulars: 1 mg/kg intravenous; for Blutdrucksenkung: significant lowering; for Dauer der Blutdrucksenkung: time over which lowering of at least 20 mm persists. On the procedure: (§1) 1)Die blutdrucksenkende Wirkung wurde am narkosierten Hund und an der Hochdruckratete bestimmt.
Hunde werden mit Pentobarbital-Natrium (^(R)Nembutal) (35 mg/kg i.p.) narkotisiert, die Prüfsubstanz in Dosen von 0,5-5 mg/kg. intravenös appliziert und die Blutdrucksenkung laufend über 30 bis 60 Minuten, bei längerer Wirksamkeit auch länger, fortlaufend registriert. Eine signifikante Senkung von mindestens 20 mm über mindestens 30 Minuten tritt z.B. nach Applikation der Verbindungen der Beispiele Nr. 6 und 31b in Dosen von jeweils 1 mg/kg ein.

Assay [1] deals with mit Strophantin vergiftete Hund. In words: Antiarrhythmic effect in the strophanthin-poisoned dog (ventricular extrasystoles, ECG). The note with it: dog poisoned with K-Strophanthin i.v. infusion until frequent ventricular extrasystoles; 1 mg/kg intravenous; active = arrhythmia completely abolished. The text has this:
2) Zur Prüfung auf antiarrythmische Wirkung wird der mit Strophantin vergiftete Hund verwendet (Methode: Laszlo Szekeres, Institute of Pharmacology, University Medical School of Szeged, Hungary, Methods for Evaluating Antiarrhytmic Agents" in Methods in Pharmacology I, New York 1971, Herausgeber A. Schwartz).

The test system of assay [2] is genetischen Hochdruckratte. In words: Blood pressure lowering in the genetically hypertensive rat, oral administration. Particulars: 15 mg/kg per os, within 18 hours. The procedure: as §1
Zur Prüfung an der genetischen Hochdruckratte werden die Substanzen oral verabreicht. Die Verbindung des Beispiels 31b bewirkt bei einer Dosierung von 15 mg/kg per os innerhalb von 18 Stunden einen Blutdruckabfall von 30 - 50 mm.

Take `COc1cc2c(cc1OC)N=C(N1CCC(NC(=O)c3ccccc3)CC1)CC2` [Beispiel 6]: in the assay on narkosierten Hund, the Blutdrucksenkung is on record as at least 20 mm and the “Dauer der Blutdrucksenkung” value was at least 30 Minuten.
Take `CC(C)(C)OC(=O)NC1CCN(C2=Nc3ccccc3CC2)CC1` [Beispiel 31a, 2-(4-Tert.butyloxycarbonylamino-1-piperidyl)-3,4-dihydro-chinolin]: the “antiarrythmische Wirkung (Beseitigung der Rhythmusstörungen)” value in assay [1] is on record as “Rhythmusstörungen völlig zu beseitigen vermochte”.
As to `NC1CCN(C2=Nc3ccccc3CC2)CC1` [Beispiel 31b, 2-(4-Amino-1-piperidyl)-3,4-dihydrochinolin], in the assay with narkosierten Hund, the Blutdrucksenkung is recorded as at least 20 mm and the “Dauer der Blutdrucksenkung” value was at least 30 Minuten. In assay [2], the Blutdruckabfall was 30 - 50 mm.

For the origin of these results see patent publication EP0007525A1, “2-(4-Aminopiperidino)-3.4-dihydroquinoline derivatives, processes for their preparation, pharmaceutical compositions containing them and their use” (HOECHST AKTIENGESELLSCHAFT, priority 1978, dated 1980).
